{"source": "patent US20170249408A1", "about": "“Antiperspirant and Deodorant Compositions Comprising Malodor Reduction Compositions” (The Procter & Gamble Company, priority 2015, published 2017)", "test": "Blocker Index (BI), expert graders, isovaleric acid malodorous swatch", "design": "key: Blocker Index, expert-graded scale 0 to 3 (0 = clean swatch anchor)", "description": "Blocker materials suitable for use in consumer products of the present invention are chosen for their ability to decrease malodor, while not interfering with perception of a fragrance. Material selection is done by assigning two indices to a test sample material from two reference scales in order to rank odor strengths. The two reference scales are the Fragrance Fidelity Index (FFI) scale and the Blocker Index (BI) scale. The FFI ranks the ability of the test sample material to impart a perceivable odor which could cause interference when combined with another fragrance and the BI ranks the ability of the test sample material to reduce malodor perception. The two methods for assigning the indices to a test sample on the FFI and the BI reference scales are given below.\nThe first step in the method for assigning a BI to a test sample material on the BI reference scale is to create the BI reference swatches. […] Fabric swatches for this test are white knit polycotton (4 inch×4 inch) swatches from EMC ordered as PC 50/50. The supplier is instructed to strip the swatches first, stripping involves washing twice with a fragrance-free detergent and rinsing three times.\nThe BI scale contains one clean swatch with no malodor applied. […] These solutions are pipetted to the middle of the swatches. […] After drying for 30 minutes in a vented hood, the swatches are wrapped in aluminum foil to prevent odor contamination to the treated swatch. A clean untreated swatch is also included as the lowest anchor point of reference for malodor strength on the BI scale. The BI reference scale swatches should be used within 0.5 to 12 hours and discarded after 12 hours. The swatches are used as scale anchor points when graders evaluate a test sample(s) and are assigned a Blocker Index (BI) as show in Table 12.\nThe perfumer/expert grader is asked to rank order swatches according to a scale between 0 and 3.\nTo evaluate the BI, the test material is applied to a malodorous swatch to determine how well the test material blocks the malodor. […] After drying the malodorous swatch a known concentration of test material solution, between 1 ppm and 100 ppm is pipetted onto the malodorous swatch. […] It is sometimes necessary to evaluate several levels of the test material between about 1 and about 100 ppm to determine the BI.\nAt least two perfumers/expert graders are used to assign the BI to the test sample. […] The test sample swatch is assigned a BI at or between numbers on the BI in table.", "key": {"[1]": {"conditions": "Conc 50 ppm of test material on isovaleric acid malodorous swatch"}, "[2]": {"conditions": "Conc 10 ppm of test material on isovaleric acid malodorous swatch"}, "[3]": {"conditions": "test material Conc 10 ppm on isovaleric acid swatch"}, "[4]": {"conditions": "test material Conc 50 ppm on isovaleric acid swatch"}}, "data": [{"smiles": "C=C1CCC2OC2(C)CCC2C1CC2(C)C", "note": "(stereo not shown) [Material 1148]", "values": [{"measurement": "BI", "setting": "[1]", "value": 2.3}]}, {"smiles": "CCC(O)COC1CCCCC1C(C)(C)C", "note": "(stereo not shown) [Material 677]", "values": [{"measurement": "BI", "setting": "[2]", "value": 2.3}, {"measurement": "BI", "setting": "[1]", "value": 2.0}]}, {"smiles": "CC(CCO)CCc1ccccc1", "note": "(stereo not shown) [Material 962]", "values": [{"measurement": "BI", "setting": "[2]", "value": 2.3}, {"measurement": "BI", "setting": "[1]", "value": 1.7}]}, {"smiles": "CC(=O)OC1CC2CC1C1CC=CC21", "note": "(stereo not shown) [Material 281]", "values": [{"measurement": "BI", "setting": "[2]", "value": 2.0}, {"measurement": "BI", "setting": "[1]", "value": 2.0}]}, {"smiles": "CCCCCCCCCCCO", "note": "[Undecanol]", "values": [{"measurement": "BI", "setting": "[1]", "value": 2.3}]}, {"smiles": "O=C1CCC2CCCCC2O1", "note": "(stereo not shown) [3,4,4a,5,6,7,8,8a-octahydrochromen-2-one]", "values": [{"measurement": "BI", "setting": "[2]", "value": 2.0}, {"measurement": "BI", "setting": "[1]", "value": 2.0}]}, {"smiles": "CC1(C)CCc2ccc(CCC=O)cc21", "note": "[Material 261]", "values": [{"measurement": "BI", "setting": "[2]", "value": 1.8}, {"measurement": "BI", "setting": "[1]", "value": 1.3}]}, {"smiles": "CCCCCCCCCCCCO", "note": "[Material 174]", "values": [{"measurement": "BI", "setting": "[1]", "value": 2.3}]}, {"smiles": "CC(C)(C)C1CCCCC1", "note": "[4-tert-butyl cyclohexane]", "values": [{"measurement": "BI", "setting": "[2]", "value": 2.0}, {"measurement": "BI", "setting": "[1]", "value": 2.0}]}, {"smiles": "CCC(=O)OC1CC2C3C=CCC3C1C2(C)C", "note": "(stereo not shown) [8,8-dimethyl-3a,4,5,6,7,7a-hexahydro-1H-4,7-methanoinden-6-yl propionate]", "values": [{"measurement": "BI", "setting": "[3]", "value": 1.5}, {"measurement": "BI", "setting": "[4]", "value": 2.2}]}, {"smiles": "CCOC(=O)OC1C(C)CCC(C)C1C", "note": "(stereo not shown) [Material 1005]", "values": [{"measurement": "BI", "setting": "[1]", "value": 2.6}]}, {"smiles": "CCCCCCCCCCCC(=O)OCC", "note": "[Material 391]", "values": [{"measurement": "BI", "setting": "[1]", "value": 2.2}]}, {"smiles": "CC(=O)OCCCCCCC(C)C", "note": "[Material 204]", "values": [{"measurement": "BI", "setting": "[2]", "value": 2.0}, {"measurement": "BI", "setting": "[1]", "value": 2.7}]}, {"smiles": "CC1(C)C2CCC3(C2)C1C(=O)CCC3(C)C", "note": "(stereo not shown) [Material 1149]", "values": [{"measurement": "BI", "setting": "[2]", "value": 1.5}, {"measurement": "BI", "setting": "[1]", "value": 2.3}]}, {"smiles": "COC(=O)OC1CC/C=C\\CCC1", "note": "(stereo not shown) [Material 1139]", "values": [{"measurement": "BI", "setting": "[2]", "value": 2.0}, {"measurement": "BI", "setting": "[1]", "value": 2.7}]}, {"smiles": "C=CC(C)=CCC=C(C)C", "note": "[Material 524]", "values": [{"measurement": "BI", "setting": "[1]", "value": 2.8}]}, {"smiles": "CC1(C)CCc2ccc(CCC=O)cc21", "note": "[Material 261, 3-(3,3-dimethyl-2,3-dihydro-1H-inden-5-yl)propanal]", "values": [{"measurement": "BI", "setting": "[3]", "value": 1.5}, {"measurement": "BI", "setting": "[4]", "value": 2.7}]}, {"smiles": "CC1CCC2(C(C)C)CC(C)OC2C1", "note": "(stereo not shown) [4,8-dimethyl-1-(methylethyl)-7-oxybiciclo[4.3.0]nonane]", "values": [{"measurement": "BI", "setting": "[3]", "value": 2.0}, {"measurement": "BI", "setting": "[4]", "value": 2.2}]}, {"smiles": "CCCCCCCCCCCCCCCC(=O)OC", "note": "[Material 109]", "values": [{"measurement": "BI", "setting": "[2]", "value": 2.0}]}]}
